# Reference: patent US5236948A, “Sulphonamide derivatives” (Imperial Chemical Industries PLC, priority 1991, dated 1993)
# Assays:
# [1] = biological target: T1, 5-LO (Homo sapiens, UniProt P09917); experiment: Test a) in vitro inhibition of LTB4 formation in heparinised human blood challenged with A23187 (radioimmunoassay); type: cell-based
# T1 construct: incubating a test compound with heparinised human blood; endogenous in cells; host or cells: blood cells in heparinised human whole blood
# T1 sequence (P09917 1-674): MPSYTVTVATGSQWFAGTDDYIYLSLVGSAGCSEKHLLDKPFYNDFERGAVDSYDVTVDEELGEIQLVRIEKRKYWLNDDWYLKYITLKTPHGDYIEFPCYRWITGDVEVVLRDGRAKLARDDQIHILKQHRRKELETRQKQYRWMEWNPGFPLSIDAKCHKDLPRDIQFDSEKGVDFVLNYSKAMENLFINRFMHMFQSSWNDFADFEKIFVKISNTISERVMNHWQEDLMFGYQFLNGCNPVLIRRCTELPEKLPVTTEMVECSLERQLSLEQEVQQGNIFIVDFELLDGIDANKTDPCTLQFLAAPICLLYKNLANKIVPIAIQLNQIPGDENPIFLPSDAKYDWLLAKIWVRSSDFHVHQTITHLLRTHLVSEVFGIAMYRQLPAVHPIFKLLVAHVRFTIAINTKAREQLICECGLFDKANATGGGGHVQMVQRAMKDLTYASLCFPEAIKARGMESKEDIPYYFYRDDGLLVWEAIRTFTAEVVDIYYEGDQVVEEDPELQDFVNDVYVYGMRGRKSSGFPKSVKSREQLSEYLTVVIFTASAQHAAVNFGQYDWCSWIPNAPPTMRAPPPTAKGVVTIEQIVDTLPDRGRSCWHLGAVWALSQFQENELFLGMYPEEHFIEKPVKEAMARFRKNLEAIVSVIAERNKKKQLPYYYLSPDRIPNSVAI
# Experimental: a) An in vitro assay system involving incubating a test compound with heparinised human blood, prior to challenge with the calcium ionophore A23187 and then indirectly measuring the inhibitory effects on 5-LO by assaying the amount of LTB4 using specific radioimmunoassays described by Carey and Forder (Prostaglandins, Leukotrienes Med., 1986, 22, 57; Prostaglandins, 1984, 28, 666; Brit. J. Pharmacol., 1985, 84, 34P) which involve the use of a protein-LTB4 conjugate produced using the procedure of Young et alia (Prostaglandins, 1983, 26(4), 605-613). The effects of a test compound on the enzyme cyclooxygenase (which is involved in the alternative metabolic pathway for arachidonic acid and gives rise to prostaglandins, thromboxanes and related metabolites) may be measured at the same time using the specific radioimmunoassay for thromboxane B2 (TxB2) described by Carey and Forder (see above). This test provides an indication of the effects of a test compound against 5-LO and also cyclooxygenase in the presence of blood cells and proteins. It permits the selectivity of the inhibitory effect on 5-LO or cyclooxygenase to be assessed.
# [2] = biological target: T2, 5-LO (Rattus norvegicus, UniProt P12527); experiment: Test c) in vivo zymosan-induced LTB4 liberation in rat air pouch, oral compound; conditions: 3 h; test c)
# T2 construct: an air pouch generated within the subcutaneous tissue of the back of male rats; endogenous in cells; host or cells: cells of the zymosan-inflamed air pouch of live male rats
# T2 sequence (P12527 1-673): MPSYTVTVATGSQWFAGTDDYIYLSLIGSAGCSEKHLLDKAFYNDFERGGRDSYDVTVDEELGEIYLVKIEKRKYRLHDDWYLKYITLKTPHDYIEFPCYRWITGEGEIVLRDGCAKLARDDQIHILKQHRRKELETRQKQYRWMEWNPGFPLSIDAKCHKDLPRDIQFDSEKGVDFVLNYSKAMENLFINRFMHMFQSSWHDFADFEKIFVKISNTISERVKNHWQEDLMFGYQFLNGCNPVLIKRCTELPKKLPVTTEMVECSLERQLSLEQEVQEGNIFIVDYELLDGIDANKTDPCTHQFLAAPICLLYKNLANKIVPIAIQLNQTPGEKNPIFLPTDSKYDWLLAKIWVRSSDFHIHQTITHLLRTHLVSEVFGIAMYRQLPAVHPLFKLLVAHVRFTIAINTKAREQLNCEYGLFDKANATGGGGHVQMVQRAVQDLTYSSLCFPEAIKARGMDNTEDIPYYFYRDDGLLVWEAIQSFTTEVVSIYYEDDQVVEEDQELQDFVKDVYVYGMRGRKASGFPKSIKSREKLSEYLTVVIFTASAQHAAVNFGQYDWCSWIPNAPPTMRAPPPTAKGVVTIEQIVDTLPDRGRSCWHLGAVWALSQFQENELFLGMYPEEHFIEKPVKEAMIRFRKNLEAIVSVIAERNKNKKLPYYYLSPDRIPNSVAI
# Experimental: c) An in vivo system involving measuring the effects of a test compound administered orally against the liberation of LTB4 induced by zymosan within an air pouch generated within the subcutaneous tissue of the back of male rats. The rats are anaesthetised and air pouches are formed by the injection of sterile air (20 ml). A further injection of air (10 ml) is similarly given after 3 days. At 6 days after the initial air injection the test compound is administered (usually orally as the suspension produced when a solution of the test compound in dimethylsulphoxide is added to hydroxypropylmethylcellulose), followed by the intrapouch injection of zymosan (1 ml of a 1% suspension in physiological saline). After 3 hours the rats are killed, the air pouches are lavaged with physiological saline, and the specific radioimmunoassay described above is used to assay LTB4 in the washings. This test provides an indication of inhibitory effects against 5-LO in an inflammatory milieu.
IC50 [1] [nM],ED50 [2] [mg/kg],Compound
1000,1.5,COC1(c2cccc(Sc3ccc(NS(C)(=O)=O)c(Cl)c3)c2)CCOCC1 [N-{2-chloro-4-[3-(4-methoxytetrahydropyran-4-yl)phenylthio]phenyl)-methanesulphonamide]
90,1,COC1(c2cccc(Sc3ccc(N(C)S(C)(=O)=O)cc3Cl)c2)CCOCC1 [N-{3-chloro-4-[3-(4-methoxytetrahydropyran-4-yl)phenylthio]phenyl}-N-methylmethanesulphonamide]
